# According to patent US5202349A, “Substituted phenylacetylenes, pharmaceutical compositions containing these compounds and processes for the preparation of these compounds and compositions” (Gruenenthal GmbH, priority 1990, dated 1993):
# Key:
# 5-lipoxygenase = target: T1, 5-lipoxygenase (Rattus norvegicus, UniProt P12527); experiment: Inhibition of 5-lipoxygenase in rat basophilic leukemia cells ([14C]-arachidonic acid, TLC); format: cell-based; settings: for IC50: rat basophilic leukemia cells, standardized to nordihydroguaiaretic acid; for Quotient (IC50 cyclooxygenase (B) / 5-lipoxygenase (A)): selectivity
# T1 construct: endogenous in cells; host or cells: rat basophilic leukemia cells
# T1 sequence (P12527 1-673): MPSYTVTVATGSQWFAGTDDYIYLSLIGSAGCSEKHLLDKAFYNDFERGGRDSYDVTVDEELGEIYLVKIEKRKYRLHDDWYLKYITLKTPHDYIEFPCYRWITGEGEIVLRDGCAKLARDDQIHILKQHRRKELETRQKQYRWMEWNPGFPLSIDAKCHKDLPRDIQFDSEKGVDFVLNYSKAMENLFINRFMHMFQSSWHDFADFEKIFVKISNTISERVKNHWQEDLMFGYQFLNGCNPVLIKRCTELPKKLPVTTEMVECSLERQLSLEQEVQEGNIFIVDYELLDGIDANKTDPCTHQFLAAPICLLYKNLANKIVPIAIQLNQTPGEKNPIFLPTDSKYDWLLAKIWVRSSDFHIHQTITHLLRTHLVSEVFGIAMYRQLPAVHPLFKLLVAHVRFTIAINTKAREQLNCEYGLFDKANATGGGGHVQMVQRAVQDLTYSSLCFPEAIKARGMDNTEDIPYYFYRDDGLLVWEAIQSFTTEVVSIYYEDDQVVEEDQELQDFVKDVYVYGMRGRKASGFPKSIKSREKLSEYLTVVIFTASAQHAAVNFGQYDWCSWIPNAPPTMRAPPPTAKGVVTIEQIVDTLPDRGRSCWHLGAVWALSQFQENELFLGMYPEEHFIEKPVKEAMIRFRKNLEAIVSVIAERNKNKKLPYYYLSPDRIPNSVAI
# Experimental: To 1 ml each of this suspension there was added indomethacin (10 μM) and calcium chlorid (2 mM) and then the mixture was incubated in presence or absence of a test compound for 3 minutes and thereafter with 20 μM of [^14 C]-arachidonic acid and 20 μM of the calcium ionophore A 23 187 for 10 minutes. The reaction was stopped by adding 20 μl of glacial acetic acid and then the mixture was extracted with ethyl acetate to isolate the metabolites of arachidonic acid formed by the enzymatic action of 5-lipoxygenase. These were separated by thin layer chromatography using a solvent mixture known to be suitable for leukotriene analysis [c.f. Jakschik et al., Biochem. Biophys. Res. Commun. 102, 624 (1981)]. The distribution of the radioactivity to the different metabolites was measured using a TLC Linear Analyzer. By bringing into relationship the percentages of the amount of the products formed under the action of 5-lipoxygenase (5-HETE, isomers of LTB4) in the controls (tests performed in absence of test compounds) and in the presence of test compounds of formula I in different concentrations the "IC50 -value" (i.e. the concentration of the test compound which causes an 50%-inhibition of the 5-lipoxygenase) is determined. For standardization these values then were brought into relationship to the IC50 -values determined in the same manner for the standard compound nordihydroguaiaretic acid.
# cyclooxygenase = target: T2, cyclooxygenase (Ovis aries, UniProt P05979); experiment: Inhibition of cyclooxygenase in sheep seminal vesicle microsomes ([14C]-arachidonic acid, TLC); format: biochemical; settings: pH 7.0, read-out: IC50 for inhibition of cyclooxygenase (B)
# T2 construct: suspension of sheep seminal vesicle microsomes; from tissue; host or cells: sheep seminal vesicle microsomes
# T2 sequence (P05979 25-600): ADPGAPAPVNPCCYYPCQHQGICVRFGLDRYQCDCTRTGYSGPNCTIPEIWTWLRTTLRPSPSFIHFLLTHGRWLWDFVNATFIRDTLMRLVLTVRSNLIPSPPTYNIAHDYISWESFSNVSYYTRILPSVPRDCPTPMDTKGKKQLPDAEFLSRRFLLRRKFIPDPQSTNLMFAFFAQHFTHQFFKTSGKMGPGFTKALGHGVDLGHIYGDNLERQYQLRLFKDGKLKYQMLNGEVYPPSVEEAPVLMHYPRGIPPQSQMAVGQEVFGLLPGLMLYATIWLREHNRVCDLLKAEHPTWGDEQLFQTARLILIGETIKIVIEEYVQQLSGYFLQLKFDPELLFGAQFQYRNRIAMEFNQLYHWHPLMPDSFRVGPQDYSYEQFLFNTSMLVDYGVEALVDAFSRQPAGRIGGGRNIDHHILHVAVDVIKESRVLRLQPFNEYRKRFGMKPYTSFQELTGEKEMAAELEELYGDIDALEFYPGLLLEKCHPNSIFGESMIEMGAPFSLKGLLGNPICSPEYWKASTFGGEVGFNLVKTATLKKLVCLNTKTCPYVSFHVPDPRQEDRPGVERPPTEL
# Experimental: The effect of the test compounds on the activity of cyclooxygenase was tested using a suspension of sheep seminal vesicle microsomes in 50 mM potassium phosphate buffer of pH 7.0 which was incubated with the solvent only (as control) or with the test compound and [^14 C]-arachidonic acid. The "IC50 -values (B)" (i.e. the concentration of the test compound which causes an 50%-inhibition of the cyclooxygenase) were determined by thin layer chromatography and by means of a TLC-Linear-Analyzer.
# [1] = tested on: ex vivo iLTB4-formation (5-lipoxygenase activity) in whole blood of rats; experiment: Inhibition of ex vivo iLTB4-formation in rat whole blood after oral administration; set-up: species or system male rats (Wistar strain)
# Experimental: The bioavailability of the compounds of formula I after oral administration was characterized by means of an ex vivo biochemical assessment method described by Tateson et al. in Brit. Pharmacol., 94, 528 (1988).
# Compounds of formula I were orally administered to male rats (Wistar strain). 1 hour later the rats were bled by heart puncture in letal CO2 -narcosis. The 5-lipoxygenase reaction was triggered by the addition of the calcium-ionophor A23187 to an end concentration of […] to aliquots of rat whole blood and subsequent incubation for 30 minutes at 37° C. in a water bath. At the end of the incubation the samples were centrifuged to collect the cell free plasma. The concentration of the immunoreactive LTB4 (iLTB4 ng/ml) in each plasma sample was determined by a LTB4 -radioimmunoassay (^3 H-LTB4 -RIA, Amersham) by means of a LTB4 -standard curve in diluted rat plasma. For calculation of the percent inhibition of ex vivo iLTB4 -formation in whole blood of rats treated with the compounds of formula I rats treated with appropiate vehicle solution were included in all experiments, aliquots of their blood were run in parallel and were processed in the same way as described. The mean iLTB4 -formation per ml plasma of these vehicle treated control rats served as 100 percent value of normal control 5-lipoxygenase activity. The percent inhibition of the ex vivo iLTB4 -formation after oral administration of compounds of formula I was calculated as follows: 100 minus 100 times the quotient of the mean iLTB4 concentration per ml plasma of the rats treated with compounds of formula I […] and the mean iLTB4 concentration per ml plasma of the control rats.
# [2] = tested on: endotoxin/galactosamine-induced hepatitis, increase of liver specific enzymes in the serum; experiment: Endotoxin/galactosamine-induced hepatitis in mice (septic shock model); format: in vivo; settings: 10 mg/kg i.p. for each of five applications, 8 hours after endotoxin
# Experimental: As a test model to evaluate the effects of test compounds in septic shock the endotoxin/galactosamine-induced hepatitis in mice has been used. […] The intraperitoneal application of 5-lipoxygenase inhibitors 30 minutes before, simultaneously with and 2, 4 and 6 hours after the application of endotoxin inhibitis the hepatitis-induced increase of the serum activities of these enzymes. On administration of compounds of the formula I in doses of 10 mg/kg for each of the five applications the following percentual inhibitions of the increase of the enzymes GPT and SDH were achieved (the increase of enzymatic activities in control animals was set at 100%): […]
# bronchoconstriction = experiment: Antiasthmatic activity: ovalbumin-induced bronchoconstriction in passively sensitized guinea pigs (Konzett-Rössler); format: in vivo; settings: 100 mg/kg oral, 0.2 mg/kg i.v. ovalbumin challenge, 10 minutes
# Experimental: The antiasthmatic activity of compounds of formula I was tested in narcotised and ventilated guinea pigs. For the induction of an asthmatic reaction, the animals were passively sensitized by a single intraperitoneal injection of anti-ovalbumin serum. 48 hours afterwards the asthmatic reaction was elicited by intravenous challenge with 0.2 mg/kg ovalbumin. The immediately resulting bronchoconstriction was measured as increase in overflow according to the Konzett-Rbssler method for a period of 10 minutes. Effects caused by histamine, serotonin and sympathic counterreaction were eliminated by intravenous pretreatment with 2.15 mg/kg mepyramine, 46.4 μg/kg propranolol, 4.64 mg/kg atropin and 1 mg/kg methysergide, all given 5 minutes before challenge.
# After oral administration of the product of Example 5a or of the product of Example 9, in doses of 100 mg/kg each, the bronchoconstriction was inhibited by 54% or by 67%, respectively.
SMILES,IC50 (5-lipoxygenase),Quotient (IC50 cyclooxygenase (B) / 5-lipoxygenase (A)) (5-lipoxygenase),IC50 (cyclooxygenase),inhibition of the ex vivo iLTB4-formation ([1]; 10 mg/kg oral),Inhibition of increase of GPT [2],Inhibition of increase of SDH [2],inhibition of bronchoconstriction (bronchoconstriction),"inhibition in vivo at 21.5 mg/kg ([1]; Rattus norvegicus, 21.5 mg/kg oral, blood taken 1 hour later)"
"COc1ccc(C#Cc2cccc(C(C)N(O)C(N)=O)c2)cc1 (centres unmarked) [Example 9, N-Hydroxy-N-{1-[3-(4-methoxy-phenylethynyl)-phenyl]-ethyl}-urea]",150 nM,667,100 µM,86%,94%,90%,67%,–
"CC(=O)N(O)Cc1cccc(C#Cc2ccc3ccccc3c2)c1 [Example 1, N-[3-(Naphth-2-yl-ethynyl)-benzyl]-acetohydroxamic acid]",670 nM,> 746,> 500 µM,–,47%,58%,–,–
COc1ccc(C#Cc2cccc(C(C)N(O)C(C)=O)c2)cc1 (centres unmarked) [Example 5a],290 nM,1517,440 µM,–,–,–,54%,75%
